Reference: patent US8524692B2, “Ocular compositions containing dioleoylphosphatidylglycerol and uses thereof” (Georgia Health Sciences University Research Institute, Inc., priority 2010, dated 2013)

Tests used:
[1] = test system: keratinocytes; settings: cited from earlier work
[2] = test system: keratinocytes; experiment: [3H]Thymidine incorporation into DNA in keratinocytes; assay type: cell-based; settings: for inhibition of proliferation in rapidly dividing keratinocytes / promotion of proliferation in slowly dividing keratinocytes: 24 hours, PG species prepared by bath sonication, compared with egg phosphatidylglycerol
Experimental: Keratinocytes were treated for 24 hours with the indicated concentrations of different phosphatidylglycerol species, prepared via bath sonication of phospholipid in serum-free keratinocyte medium. [^3H]Thymidine incorporation into DNA was then determined in duplicate and averaged. All data were transformed prior to analyses to improve assumptions of normality and additivity for the models to be used. Experiments were grouped that had different responses to egg phosphatidylglycerol using finite mixture regression models and the flexmix package in R (1). This method clusters each experiment by the regression fit between In(CPM) and In(concentration), grouping cultures with similar regression lines in the same cluster. The number of clusters was determined using the Bayesian information criterion (BIC). A mixed model analysis of variance was used, conducted using the Proc Mixed procedure in SAS 9.13, separately for each of the grouped clusters to determine how the different phosphatidylglycerol species affected the relationship between cell proliferation and phosphatidylglycerol concentration. The model used for this analysis of variance included phosphatidylglycerol species as a fixed effect that potentially interacted with In(concentration), and random coefficients for each culture/experiment. The number of experiments segregating into each cluster are indicated and *p<0.05 versus the response to egg phosphatidylglycerol liposomes.
[^3H]Thymidine Incorporation Assays: [^3H]Thymidine incorporation into DNA is measured as described (62).
The effect of providing phosphatidylglycerol directly to keratinocytes in the form of liposomes was examined, since direct provision of phosphatidylglycerol itself should also trigger early differentiation. […] The egg phosphatidylglycerol used in these experiments is composed primarily of the dioleoyl and dipalmitoyl species; therefore, that there is no effect of dipalmitoyl-PP on DNA synthesis was also determined. On the other hand, if phosphatidylglycerol liposomes are applied to keratinocytes with decreased proliferative capacity, presumably as the result of contact inhibition (and as indicated by reduced [3H]thymidine incorporation into DNA under control conditions), DNA synthesis is stimulated in a dose-dependent manner, with a half-maximal effect at a concentration of approximately 35_g/mL and a maximal stimulation at 100 μg/mL.

[3] = test system: PLD; settings: acute stimulation, radiolabeled phosphatidylethanol production; cited from earlier work
[4] = test system: SV40-immortalized human corneal epithelial cells; experiment: [3H]Thymidine incorporation into DNA in corneal epithelial cells; assay type: cell-based; settings: 1 mM calcium versus control 90 μM, 24 hours
Experimental: [^3H]Thymidine incorporation into DNA was then determined. Values represent the means±SEM of 3 separate experiments performed in duplicate; *p<0.05, **p<0.01 versus the control value.
SV40-immortalized human corneal epithelial cells were cultured in a 1:1 mixture of defined keratinocyte serum free (dKSF) medium (Gibco) and minimum essential medium (Cellgro) until approximately 70% confluent. […] [^3H]Thymidine incorporation into DNA was then determined. Values represent the means±SEM of 4 separate experiments performed in duplicate; *p<0.01 versus the control value.
The cells are cultured in defined keratinocyte serum-free (dKSF) medium (Gibco) and passaged following trypsinization from the culture dish.

[5] = test system: transformed human corneal epithelial cells; experiment: Scratch wound closure assay in corneal epithelial cells; assay type: cell-based; settings: 24 hours
Experimental: SV40-immortalized human corneal epithelial cells were cultured in a 1:1 mixture of defined keratinocyte serum free (dKSF) medium (Gibco) and minimum essential medium (Cellgro) until confluent. A pipet tip was then used to create a scratch wound in the confluent monolayer. Cells were rinsed with PBS to remove unattached and damaged cells and photographed under the microscope. The medium was replaced with dKSF containing the indicated additions (Ca corresponds to 1 mM Ca^2+). Cells were incubated for 24 hours and photographed again. Percent wound closure was calculated as the change in width of the scratch wound compared to the size of the initial wound and was expressed relative to the control (medium with no additions containing 90 μM Ca^2+); *p<0.05; **p<0.01 versus the control (n=3).
FIGS. 8A-8B show the effect of egg phosphatidylglycerol and dioleoylphosphatidylglycerol on wound closure in transformed human corneal epithelial cells. SV40-immortalized human corneal epithelial cells were cultured in a 1:1 mixture of defined keratinocyte serum free (dKSF) medium (Gibco) and minimum essential medium (Cellgro) until confluent. […] Percent wound closure was calculated as the change in width of the scratch wound compared to the size of the initial wound and was expressed relative to the control (medium with no additions); *p<0.05 versus the control (n=3). […]

[6] = test system: keratinocytes; settings: concentrations from 0.1 to 1%; cited from earlier work

In the case of `C=C1/C(=C\C=C2/CCC[C@]3(C)[C@@H]([C@H](C)CCCC(C)(C)O)CC[C@@H]23)C[C@@H](O)C[C@@H]1O` [1,25-dihydroxyvitamin D3], the “radiolabeled PG formation” value ([1]; 250 nM, 24 hours) is listed as “a decrease”.
For `CCCCC/C=C\C/C=C\CCCCCCCC(=O)OC[C@H](COP(=O)(O)OCC(O)CO)OC(=O)CCCCCCC/C=C\C/C=C\CCCCC` (stereo partly drawn) [dilinoleoyl-PG], the “inhibition of proliferation in rapidly dividing keratinocytes” value (“inhibition of proliferation” for short) [2] was “particularly effective at inhibiting proliferation”.
For Palmitoyl, arachidonyl-PG, the “inhibition of proliferation” value [2] was “particularly effective at inhibiting proliferation”.
In the case of `CCCCCCCCCCCCCC(=O)O[C@@H]1[C@@H](C)[C@@]2(O)[C@@H](C=C(CO)C[C@]3(O)C(=O)C(C)=C[C@@H]23)[C@H]2C(C)(C)[C@]12OC(C)=O` [TPA], the radiolabeled phosphatidylglycerol levels ([1]; acute stimulation) is listed as “no increase” and the PLD activity [3] is listed as “activates PLD”.
In the case of palmitoyl, linoleoyl-PG, the “inhibition of proliferation” value [2] is reported as “particularly effective at inhibiting proliferation”.
With `CCCCCCCC/C=C\CCCCCCCC(=O)O[C@H](COC(=O)CCCCCCCCCCCCCCC)COP(=O)(O)OCC(O)CO` (stereo partly drawn) [Palmitoyl, oleoyl-PG, palmitoyloleoylphosphatidylglycerol] the “promotion of proliferation in slowly dividing keratinocytes” value [2] was “especially effective proproliferative”.
For `OCC(O)CO` [glycerol], the “inhibition of DNA synthesis together with elevated extracellular calcium” value [4] is listed as “more efficiently inhibit DNA synthesis than either agent alone”, the wound closure ([5]; 0.05% glycerol and calcium (1 mM Ca2+)) is listed as “significantly enhanced wound closure” and the “effect on DNA synthesis ([3H]thymidine incorporation) in keratinocytes” value (“effect on DNA synthesis” below) [6] is listed as “inhibited DNA synthesis”.
In the case of `OC[C@@H](O)[C@@H](O)[C@H](O)[C@@H](O)CO` [sorbitol], the “effect on DNA synthesis” value [6] is listed as “little or no effect”.
For `OC[C@@H](O)[C@H](O)[C@@H](O)CO` [xylitol], the “effect on DNA synthesis” value [6] is listed as “little or no effect”.
With `CCCCCCCCCCCCCCCC(=O)OC[C@H](COP(=O)(O)OCCC)OC(=O)CCCCCCCCCCCCCCC` [dipalmitoyl-PP] the “effect of liposomes on DNA synthesis in highly proliferative keratinocytes” value ([2]; liposomes) was “no effect”.
With `CCCCCCCC/C=C\CCCCCCCC(=O)OC[C@H](COP(=O)(O)OCC(O)CO)OC(=O)CCCCCCC/C=C\CCCCCCCC` (stereo partly drawn) [dioleoylphosphatidylglycerol] the “promotion of proliferation in slowly dividing keratinocytes” value [2] was “especially effective proproliferative” and the wound closure ([5]; 50 mg/ml liposomes, relative to control) was “significantly enhanced wound closure”.
